Common to all, as to assay: In vitro cell assay, MTS cell viability 96 hours after treatment
Format in all cases: cell-based

The subject of experiment [1] is MDA-MB-361-DYT2 (breast cancer). The settings on record: read-out: MDA-MB-361-DYT2 GMEAN IC50, MDA-MB-361-DYT2 cells; geometric mean; cytotoxic peptides. As for the experimental part:
(§1) Cells were treated with 3-fold serially diluted antibody-drug conjugates or free compounds (i.e., no antibody conjugated to the drug) in duplicate at 10 concentrations. Cell viability was determined by CellTiter 96® AQueous One Solution Cell Proliferation MTS Assay (Promega, Madison Wis.) 96 hours after treatment. Relative cell viability was determined as percentage of untreated control.

A further experiment concerns N87 (gastric cancer). The settings on record: read-out: N87 GMEAN IC50, N87 cells; geometric mean; cytotoxic peptides. As for the experimental part: as §1
Another experiment has as its system BT474 (breast cancer). The settings on record: Homo sapiens, BT-474, BT474 cells; geometric mean; cytotoxic peptides; read-out: BT474 GMEAN IC50. As for the experimental part:
as §1

Non-standard residues stand in square brackets, D forms with d. Residues, ends and D or L forms follow the SMILES beside them. *: point of attachment. Dolaproine = CO[C@@H]([C@@H]1CCCN1)[C@@H](C)C(=O)O; Dil = CC[C@H](C)[C@H](NC)[C@@H](CC(=O)O)OC; Phe(4-NH2) = Nc1ccc(C[C@H](N)C(=O)O)cc1; X9 = Cc1cc(-c2nc3cc(F)ccc3s2)ccc1N*; Doe = c1ccc(C[C@H](N*)c2nccs2)cc1; NHPhenethyl = c1ccc(CCN*)cc1; X1 = CN1CCC[C@]1(C)C(=O)*; NMeAib = CNC(C)(C)C(=O)O; Ac5c = NC1(C(=O)O)CCCC1; Aib = CC(C)(N)C(=O)O; NHtBu = CC(C)(C)N*; OtBu = CC(C)(C)O*

As usually defined, the IC50 is the point on the concentration scale where inhibition reaches its midpoint. For `CC[C@H](C)[C@@H]([C@@H](CC(=O)N1CCC[C@H]1[C@H](OC)[C@@H](C)C(=O)N[C@@H](Cc1ccccc1)C(=O)OC)OC)N(C)C(=O)[C@@H](NC(=O)[C@]1(C)CCCCN1)C(C)C` (single isomer, unassigned) [#158], the figures for the IC50 (in experiment [1]; with N87 (gastric cancer); in the experiment with BT474 (breast cancer)) were 0.1 nM, 0.115 nM and 0.082 nM, respectively.
`CC[C@H](C)[C@@H]([C@@H](CC(=O)N1CCC[C@H]1[C@H](OC)[C@@H](C)C(=S)N[C@@H](Cc1ccccc1)c1nccs1)OC)N(C)C(=O)[C@@H](NC(=O)C1(N)CCCC1)C(C)C` [#30, N^2-[(1-aminocyclopentyl)carbonyl]-N-[(3R,4S,5S)-3-methoxy-1-{(2S)-2-[(1R,2R)-1-methoxy-2-methyl-3-{[(1S)-2-phenyl-1-(1,3-thiazol-2-yl)ethyl]amino}-3-thioxopropyl]pyrrolidin-1-yl}-5-methyl-1-oxoheptan-4-yl]-N-methyl-L-valinamide]: the concentration for half-maximal inhibition (IC50) was 1.85 nM in experiment [1], 6.71 nM in the experiment on N87 (gastric cancer) and 0.682 nM with BT474 (breast cancer).
With `CC[C@H](C)[C@@H]([C@@H](CC(=O)N1CCC[C@H]1[C@H](OC)[C@@H](C)C(=S)N[C@@H](Cc1ccccc1)c1nccs1)OC)N(C)C(=O)[C@@H](NC(=O)C(C)(C)N)C(C)C` [#34, 2-methylalanyl-N-[(3R,4S,5S)-3-methoxy-1-{(2S)-2-[(1R,2R)-1-methoxy-2-methyl-3-{[(1S)-2-phenyl-1-(1,3-thiazol-2-yl)ethyl]amino}-3-thioxopropyl]pyrrolidin-1-yl}-5-methyl-1-oxoheptan-4-yl]-N-methyl-L-valinamide], the values for the concentration for half-maximal inhibition (IC50) (in experiment [1]; in the experiment with N87 (gastric cancer); in the experiment on BT474 (breast cancer)) were 1.12 nM, 1.95 nM and 0.211 nM, respectively.
On the same counts, the results for `CC[C@H](C)[C@@H]([C@@H](CC(=O)N1CCC[C@H]1[C@H](OC)[C@@H](C)C(=S)N[C@@H](Cc1ccccc1)C(=O)O)OC)N(C)C(=O)[C@@H](NC(=O)[C@@H](NC)C(C)C)C(C)C` [#41, N-methyl-L-valyl-N-[(3R,4S,5S)-1-{(2S)-2-[(1R,2R)-3-{[(1S)-1-carboxy-2-phenylethyl]amino}-1-methoxy-2-methyl-3-thioxopropyl]pyrrolidin-1-yl}-3-methoxy-5-methyl-1-oxoheptan-4-yl]-N-methyl-L-valinamide] are 51.8 nM, 33.2 nM and 29.7 nM.
For `CC[C@H](C)[C@@H]([C@@H](CC(=O)N1CCC[C@H]1[C@H](OC)[C@@H](C)C(=S)N[C@@H](Cc1ccccc1)C(=O)OC)OC)N(C)C(=O)[C@@H](NC(=O)[C@@H](NC)C(C)C)C(C)C` [#42, N-methyl-L-valyl-N-[(3R,4S,5S)-3-methoxy-1-{(2S)-2-[(1R,2R)-1-methoxy-3-{[(2S)-1-methoxy-1-oxo-3-phenylpropan-2-yl]amino}-2-methyl-3-thioxopropyl]pyrrolidin-1-yl}-5-methyl-1-oxoheptan-4-yl]-N-methyl-L-valinamide], the IC50 in experiment [1] worked out at 0.195 nM; in the experiment on N87 (gastric cancer), 0.327 nM; with BT474 (breast cancer) it was 0.125 nM.
On the same counts, the results for `CC[C@H](C)[C@@H]([C@@H](CC(=O)N1CCC[C@H]1[C@H](OC)[C@@H](C)C(=S)N[C@@H](Cc1ccccc1)C(=O)O)OC)N(C)C(=O)[C@@H](NC(=O)C(C)(C)N)C(C)C` [#44, 2-methylalanyl-N-[(3R,4S,5S)-1-{(2S)-2-[(1R,2R)-3-{[(1S)-1-carboxy-2-phenylethyl]amino}-1-methoxy-2-methyl-3-thioxopropyl]pyrrolidin-1-yl}-3-methoxy-5-methyl-1-oxoheptan-4-yl]-N-methyl-L-valinamide] are more than 16.4 nM, 14.6 nM and 7.12 nM.
On the same counts, the results for `CC[C@H](C)[C@@H]([C@@H](CC(=O)N1CCC[C@H]1[C@H](OC)[C@@H](C)C(=O)N[C@@H](Cc1ccccc1)c1nccs1)OC)N(C)C(=O)[C@@H](NC(=O)C1(N)CCCC1)C(C)C` [#47, N^2-[(1-aminocyclopentyl)carbonyl]-N-[(3R,4S,5S)-3-methoxy-1-{(2S)-2-[(1R,2R)-1-methoxy-2-methyl-3-oxo-3-{[(1S)-2-phenyl-1-(1,3-thiazol-2-yl)ethyl]amino}propyl]pyrrolidin-1-yl}-5-methyl-1-oxoheptan-4-yl]-N-methyl-L-valinamide] (H-[Ac5c]V[Dil][Dolaproine]-Doe) are 0.317 nM, less than 0.256 nM and less than 0.244 nM.
The like results for `CC[C@H](C)[C@@H]([C@@H](CC(=O)N1CCC[C@H]1[C@H](OC)[C@@H](C)C(=O)NCCc1ccccc1)OC)N(C)C(=O)[C@@H](NC(=O)C(C)(C)N)C(C)C` [#56, 2-methylalanyl-N-{(3R,4S,5S)-3-methoxy-1-[(2S)-2-{(1R,2R)-1-methoxy-2-methyl-3-oxo-3-[(2-phenylethyl)amino]propyl}pyrrolidin-1-yl]-5-methyl-1-oxoheptan-4-yl}-N-methyl-L-valinamide] (H-[Aib]V[Dil][Dolaproine]-NHPhenethyl) were, in that order, 0.766 nM, 1.26 nM and 0.316 nM.
Turning to `CC[C@H](C)[C@@H]([C@@H](CC(=O)N1CCC[C@H]1[C@H](OC)[C@@H](C)C(=O)N[C@@H](Cc1ccccc1)C(=O)OC(C)(C)C)OC)N(C)C(=O)[C@@H](NC(=O)C(C)(C)NC)C(C)C` [#130, N,2-dimethylalanyl-N-[(3R,4S,5S)-1-{(2S)-2-[(1R,2R)-3-{[(2S)-1-tert-butoxy-1-oxo-3-phenylpropan-2-yl]amino}-1-methoxy-2-methyl-3-oxopropyl]pyrrolidin-1-yl}-3-methoxy-5-methyl-1-oxoheptan-4-yl]-N-methyl-L-valinamide] (H-[NMeAib]V[Dil][Dolaproine]F-OtBu), the concentration for half-maximal inhibition (IC50) in experiment [1] was determined as 0.039 nM; in the experiment on BT474 (breast cancer), 0.05 nM.
The like results for `CC[C@H](C)[C@@H]([C@@H](CC(=O)N1CCC[C@H]1[C@H](OC)[C@@H](C)C(=O)N[C@@H](Cc1ccccc1)C(=O)NC(C)(C)C)OC)N(C)C(=O)[C@@H](NC(=O)C(C)(C)NC)C(C)C` [#144, N,2-dimethylalanyl-N-{(1S,2R)-4-{(2S)-2-[(1R,2R)-3-{[(1S)-1-benzyl-2-(tert-butylamino)-2-oxoethyl]amino}-1-methoxy-2-methyl-3-oxopropyl]pyrrolidin-1-yl}-2-methoxy-1-[(1S)-1-methylpropyl]-4-oxobutyl}-N-methyl-L-valinamide] (H-[NMeAib]V[Dil][Dolaproine]F-NHtBu) were, in that order, 0.174 nM and 0.172 nM.
The like results for `CC[C@H](C)[C@@H]([C@@H](CC(=O)N1CCC[C@H]1[C@H](OC)[C@@H](C)C(=O)NCCC1C=CC=CC=C1)OC)N(C)C(=O)[C@@H](NC(=O)[C@@]1(C)CCCCN1)C(C)C` [#180, (2R)—N-[(2S)-1-{[(3R,4S,5S)-1-{(2S)-2-[(1R,2R)-3-{[2-(cyclohepta-2,4,6-trien-1-yl)ethyl]amino}-1-methoxy-2-methyl-3-oxopropyl]pyrrolidin-1-yl}-3-methoxy-5-methyl-1-oxoheptan-4-yl](methyl)amino}-3-methyl-1-oxobutan-2-yl]-2-methylpiperidine-2-carboxamide] were, in that order, 0.113 nM and 0.159 nM.
For `CC[C@H](C)[C@@H]([C@@H](CC(=O)N1CCC[C@H]1[C@H](OC)[C@@H](C)C(=O)N[C@@H](Cc1ccccc1)c1nccs1)OC)N(C)C(=O)[C@@H](NC(=O)[C@@]1(F)CCNC1)C(C)C` [#192, N˜2˜-{[(3R)-3-fluoropyrrolidin-3-yl]carbonyl}-N-[(3R,4S,5S)-3-methoxy-1-{(2S)-2-[(1R,2R)-1-methoxy-2-methyl-3-oxo-3-{[(1S)-2-phenyl-1-(1,3-thiazol-2-yl)ethyl]amino}propyl]pyrrolidin-1-yl}-5-methyl-1-oxoheptan-4-yl]-N-methyl-L-valinamide], the results for the half-maximal inhibitory concentration (IC50) (in experiment [1]; with BT474 (breast cancer)) were 0.408 nM and 0.262 nM, respectively.
For the compound `CC[C@H](C)[C@@H]([C@@H](CC(=O)N1CCC[C@H]1[C@H](OC)[C@@H](C)C(=O)N[C@@H](Cc1ccccc1)c1nccs1)OC)N(C)C(=O)[C@@H](NC(=O)[C@]1(F)CCNC1)C(C)C` [#194, N˜2˜-{[(3S)-3-fluoropyrrolidin-3-yl]carbonyl}-N-[(3R,4S,5S)-3-methoxy-1-{(2S)-2-[(1R,2R)-1-methoxy-2-methyl-3-oxo-3-{[(1S)-2-phenyl-1-(1,3-thiazol-2-yl)ethyl]amino}propyl]pyrrolidin-1-yl}-5-methyl-1-oxoheptan-4-yl]-N-methyl-L-valinamide], the half-maximal inhibitory concentration (IC50) came out at 0.198 nM in experiment [1] and 0.134 nM in the experiment with BT474 (breast cancer).
In the case of `CC[C@H](C)[C@@H]([C@@H](CC(=O)N1CCC[C@H]1[C@H](OC)[C@@H](C)C(=O)N[C@@H](Cc1ccc(N)cc1)C(=O)OC)OC)N(C)C(=O)[C@@H](NC(=O)[C@@]1(C)CCCN1C)C(C)C` [#201, 1,2-dimethyl-D-prolyl-N-[(3R,4S,5S)-1-{(2S)-2-[(1R,2R)-3-{[(2S)-3-(4-aminophenyl)-1-methoxy-1-oxopropan-2-yl]amino}-1-methoxy-2-methyl-3-oxopropyl]pyrrolidin-1-yl}-3-methoxy-5-methyl-1-oxoheptan-4-yl]-N-methyl-L-valinamide] (X1-V[Dil][Dolaproine][Phe(4-NH2)]-OMe), the values for the IC50 (in experiment [1]; in the experiment on BT474 (breast cancer)) were 0.121 nM and 0.144 nM, respectively.
The like results for `CC[C@H](C)[C@@H]([C@@H](CC(=O)N1CCC[C@H]1[C@H](OC)[C@@H](C)C(=O)N[C@@H](Cc1ccccc1)C(=O)Nc1ccc(-c2nc3cc(F)ccc3s2)cc1C)OC)N(C)C(=O)[C@@H](NC(=O)C(C)(C)N)C(C)C` [#235] (H-[Aib]V[Dil][Dolaproine]F-X9) were, in that order, 1.28 nM and 0.852 nM.

The values above are taken from US8828401B2, “Cytotoxic peptides and antibody drug conjugates thereof” (Pfizer Inc., priority 2011, dated 2014).
